Test results taken from ChEMBL document CHEMBL1145878, “Synthesis and evaluation of isatins and thiosemicarbazone derivatives against cruzain, falcipain-2 and rhodesain” (Bioorg Med Chem Lett, 2003).

What was measured:
Falcipain 2 [1] = molecular target: T1, Falcipain 2 (Plasmodium falciparum, UniProt Q9N6S8); experiment: Inhibitory activity against Falcipain-2; no effect
T1 sequence (Q9N6S8 whole entry): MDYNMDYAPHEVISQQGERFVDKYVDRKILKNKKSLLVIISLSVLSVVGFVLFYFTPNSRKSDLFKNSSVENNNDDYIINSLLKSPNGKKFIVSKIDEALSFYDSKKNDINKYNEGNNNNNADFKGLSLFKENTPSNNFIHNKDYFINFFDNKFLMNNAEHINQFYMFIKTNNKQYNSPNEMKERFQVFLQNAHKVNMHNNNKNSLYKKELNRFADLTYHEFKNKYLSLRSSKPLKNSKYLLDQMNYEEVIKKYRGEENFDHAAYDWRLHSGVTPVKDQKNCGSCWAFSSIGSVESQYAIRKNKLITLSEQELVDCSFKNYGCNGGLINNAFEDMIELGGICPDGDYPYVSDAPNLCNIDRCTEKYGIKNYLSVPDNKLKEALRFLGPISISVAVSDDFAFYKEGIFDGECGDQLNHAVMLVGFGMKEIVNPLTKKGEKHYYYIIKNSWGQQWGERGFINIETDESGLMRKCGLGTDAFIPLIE

Cruzipain [2] = molecular target: T2, Cruzipain (Trypanosoma cruzi, UniProt P25779); experiment: Inhibitory activity against the Trypanosoma cruzi cysteine protease cruzain
T2 sequence (P25779 whole entry): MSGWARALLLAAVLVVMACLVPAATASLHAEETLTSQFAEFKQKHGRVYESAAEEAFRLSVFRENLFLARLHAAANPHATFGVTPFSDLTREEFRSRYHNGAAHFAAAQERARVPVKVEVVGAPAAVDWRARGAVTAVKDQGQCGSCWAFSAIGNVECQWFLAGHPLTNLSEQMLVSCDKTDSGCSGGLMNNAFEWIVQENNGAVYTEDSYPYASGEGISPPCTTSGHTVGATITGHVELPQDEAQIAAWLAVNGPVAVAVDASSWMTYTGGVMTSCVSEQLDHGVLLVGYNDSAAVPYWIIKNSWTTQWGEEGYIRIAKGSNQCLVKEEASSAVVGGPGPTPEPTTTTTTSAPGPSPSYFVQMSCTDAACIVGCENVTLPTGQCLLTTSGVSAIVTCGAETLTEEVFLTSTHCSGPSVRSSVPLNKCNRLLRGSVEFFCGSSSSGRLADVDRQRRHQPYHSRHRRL

Rhodesain = Rhodesain (Trypanosoma brucei rhodesiense, UniProt Q95PM0); experiment: Inhibitory activity against Trypanosoma brucei rhodesiense cysteine protease rhodesain
Sequence of Rhodesain (Q95PM0 whole entry): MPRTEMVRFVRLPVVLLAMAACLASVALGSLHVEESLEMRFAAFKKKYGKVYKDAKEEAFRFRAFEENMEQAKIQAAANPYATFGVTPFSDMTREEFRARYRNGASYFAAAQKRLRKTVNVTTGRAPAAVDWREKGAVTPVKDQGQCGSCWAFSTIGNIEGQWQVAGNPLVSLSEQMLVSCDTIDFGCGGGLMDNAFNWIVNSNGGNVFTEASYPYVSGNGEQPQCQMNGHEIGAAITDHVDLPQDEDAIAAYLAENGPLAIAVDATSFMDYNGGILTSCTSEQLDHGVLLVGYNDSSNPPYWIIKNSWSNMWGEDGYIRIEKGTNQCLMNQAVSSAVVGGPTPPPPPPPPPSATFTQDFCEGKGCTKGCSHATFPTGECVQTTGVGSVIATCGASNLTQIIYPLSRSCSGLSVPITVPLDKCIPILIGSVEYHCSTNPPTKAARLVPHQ

Falcipain 2 [3] = molecular target: T1, Falcipain 2; experiment: Inhibitory activity against Falcipain-2
Falcipain 2 [4] = molecular target: T1, Falcipain 2; experiment: Inhibitory activity against Falcipain-2; No effect
Cruzipain [5] = molecular target: T2, Cruzipain; experiment: Inhibitory activity against Cruzain;range is 20-50

SMILES	IC50 (Falcipain 2 [1])	IC50 (Cruzipain [2]) [µM]	IC50 (Rhodesain) [µM]	IC50 (Falcipain 2 [3]) [µM]	IC50 (Falcipain 2 [4])	IC50 (Cruzipain [5]) [µM]
O=C1C(=O)N(Cc2ccccc2)c2ccccc21	Not Active	> 10	> 10	–	–	–
O=C1Nc2ccc(Br)cc2C1=O	Not Active	> 10	–	–	–	–
O=C1Nc2ccc(OC(F)(F)F)cc2C1=O	Not Active	> 10	> 10	–	–	–
Cc1ccc2c(c1)C(=O)C(=O)N2Cc1ccc(Cl)cc1	Not Active	> 10	> 10	–	–	–
Cc1ccc2c(c1)C(=O)C(=O)N2Cc1ccccc1-c1ccccc1	–	2.8	> 10	9.2	–	–
Cc1cc(C)c2[nH]c(O)c(/N=N/C(=N)S)c2c1	–	16	15	13.2	–	–
Cc1cc(Cl)cc2c(/N=N/C(=N)S)c(O)[nH]c12	–	10.5	3	9.4	–	–
O=C1C(=O)N(Cc2ccccc2)c2ccc(I)cc21	–	90	> 10	–	–	–
Cc1ccc(C)c(CN2C(=O)C(=O)c3cc(C)ccc32)c1	Not Active	80	> 10	–	–	–
O=C1C(=O)N(C(=O)OCc2ccccc2)c2ccc(F)cc21	–	> 10	> 10	–	–	–
O=C1C(=O)N(C(=O)c2ccccc2)c2ccccc21	Not Active	–	100	–	–	–
Cc1ccc2c(c1)C(=O)C(=O)N2	–	> 10	–	–	Not Active	–
NC(=S)/N=N/c1c(O)[nH]c2ccc(Cl)cc12	–	21	6	32.8	–	–
Cc1ccc2[nH]c(O)c(/N=N/C(=N)S)c2c1	–	–	15	43.9	–	50
NC(=S)/N=N/c1c(O)[nH]c2ccc(I)cc12	–	9	1	28.7	–	–
O=C1C(=O)N(C(=O)OCc2ccccc2)c2ccccc21	Not Active	–	30	–	–	–
NC(=S)/N=N/c1c(O)[nH]c2ccc(F)cc12	–	30	15	38.6	–	–

SMILES	IC50 (Falcipain 2 [1])	IC50 (Cruzipain [2]) [µM]	IC50 (Rhodesain) [µM]	IC50 (Falcipain 2 [3]) [µM]	IC50 (Falcipain 2 [4])	IC50 (Cruzipain [5]) [µM]
O=C1C(=O)N(S(=O)(=O)c2ccccc2)c2ccccc21	Not Active	–	15	–	–	–
COc1cccc(CN2C(=O)C(=O)c3cc(Cl)ccc32)c1	–	> 10	> 10	34.6	–	–
NC(=S)/N=N/c1c(O)[nH]c2ccc([N+](=O)[O-])cc12	–	30	17	4.4	–	–
COc1cccc(CN2C(=O)C(=O)c3cc(C)ccc32)c1	–	2	> 10	21.9	–	–
O=C1C(=O)N(C(=O)OCc2ccccc2)c2ccc(Cl)cc21	Not Active	80	> 10	–	–	–
O=C1Nc2ccc(Cl)cc2C1=O	Not Active	> 10	–	–	–	–
O=C1C(=O)N(Cc2ccc(Cl)cc2)c2ccc(Cl)cc21	–	6	> 10	31.2	–	–
NC(=S)/N=N/c1c(O)[nH]c2ccccc12	–	8	3.5	38.8	–	–
Cc1cc(C)c2c(c1)C(=O)C(=O)N2	Not Active	> 10	–	–	–	–
O=C1C(=O)N(Cc2ccccc2)c2ccc(Cl)cc21	–	90	> 10	46.9	–	–
NC(=S)/N=N/c1c(O)[nH]c2ccc(Br)cc12	–	20	7	29.6	–	–
CN1C(=O)C(=O)c2ccccc21	Not Active	> 10	–	–	–	–
O=C1Nc2ccc(F)cc2C1=O [5-FLUOROISATIN]	Not Active	> 10	–	–	–	–
O=C1Nc2ccc(I)cc2C1=O [5-IODOISATIN]	Not Active	> 10	–	–	–	–
O=C1Nc2ccc([N+](=O)[O-])cc2C1=O [5-NITROISATIN]	–	> 10	> 10	42.6	–	–
O=C1Nc2ccccc2C1=O [ISATIN]	–	> 10	> 10	–	Not Active	–
O=C1C(=O)N(c2ccccc2)c2ccccc21 [PHENYL ISATIN]	Not Active	> 10	–	–	–	–
